Values of other authors, collected in US20070116750A1, “Compositions for disrupting and inhibiting reconstitution of wound biofilm” (priority 2005, published 2007).

System: established biofilm
Details: applied at full strength to an established biofilm

In the case of `OCl` [sodium hypochlorite], the biofilm killed is listed as 50%.
